Laboratory results reported in US10646600B2, “HER2 polypeptides useful for imaging and monitoring tumors and cancers” (GE HEALTHCARE LIMITED, priority 2013, dated 2020).

What was measured:
SKOV-3 xenografts = assay: PET-CT imaging and kinetic modeling, SKOV-3 xenografts; assay type: in vivo, mice
Method: […] […] To investigate response to HSP90 inhibition, SKOV-3 xenograft-bearing mice were treated with 50 mg/kg NVP-AUY922 or equivalent volume of vehicle (˜5 μL/g body weight; 10% DMSO and 5% Tween-20 in PBS) q.d. i.p. for three days. 24 h after the last treatment, animals were used for PET imaging.
Mice were anesthetized through isoflurane inhalation and scanned on a dedicated small animal PET-CT scanner (Siemens Multimodality Inveon, Erlangen, Germany). Low dose CT scans were first acquired (80 kVp, 0.5 mA, 220 degree rotation, 600 ms per degree exposure time, 80 μm reconstruction pixel size) for PET attenuation correction and to obtain an anatomical reference. PET images were acquired following a bolus i.v. injection of approximately 3.7 MBq [^18F]GE-226 in the tail vein. Dynamic emission scans were acquired in list mode format over 60 minutes. The acquired data were sorted into 0.5-mm sinogram bins and 19 time frames for image reconstruction by filtered back projection (4×15 seconds and 4×60 seconds followed by 11×300 seconds). The Siemens Inveon Research Workplace software was used for visualization of radiotracer uptake. 30 to 60-minute cumulative images of the dynamic data were employed to define 3-dimensional (3D) regions of interest (ROI). Arterial input function was estimated by drawing ROIs over the center of the heart cavity using 0.25 to 2 minutes of cumulative images. The count densities were averaged for all ROIs at each time point to obtain time versus radioactivity curves (TAC). Tumor TACs were normalized to injected dose measured by a VDC-304 dose calibrator (Veenstra Instruments, Joure, Netherlands) and normalized uptake was expressed as percentage injected dose per mL tissue (NUV; % ID/mL). Normalized uptake of radiotracer at 60 minutes (NUV60) was used for comparisons. For qualitative image visualization, cumulative images of the dynamic data (30 to 60 min) were also iteratively reconstructed (OSEM3D).
Kinetic analysis of PET data was performed applying a standard two-tissue irreversible compartmental model to fit each tumor TAC with the corresponding image-derived plasma TAC as input function (IF) to estimate K1 (mL/cm^3/min), k2, (1/min) and k3 (1/min) and the blood vascular component Vb (mL blood/mL tissue; unitless). The irreversible uptake rate Ki (mL/cm^3/min) was computed as K1×k3/(k2+k3). To estimate the kinetic parameters the measured tumor TAC (tTAC) was modeled as tTAC(t)=(1−Vb)h(t)⊗IF(t)+VbIF(t) with h(t) indicating the unknown tissue impulse function and ⊗ the convolution operator. The parameter vector p=[K1, k2, k3, Vb] was estimated with the standard Weighted Non-Linear Least Squares (WNLLS) by minimizing the Weighted Residual Sum of Squares (WRSS) function

SKOV-3 cells = assay: In vitro uptake assay in SKOV-3 cells (blocking, siRNA, drug treatment, specific activity); assay type: cell-based, human
Method: For siRNA-mediated HER2 knockdown, SKOV-3 cells were transfected with 25 nM scramble control (SCR; Dharmacon, Lafayette, Colo., ON-TARGETplus Non-targeting Pool, Cat. Nr: D-001810-10-05) or HER2-targeting siRNA (Invitrogen ERBB2 Silencer® Select Validated siRNA; Cat. Nr: 4457298) by reverse wet transfection with Lipofectamine RNAiMAX (Invitrogen) according to manufacturer's instructions. 3×10^5 cells were seeded in 12-well plates 48 h prior to uptake experiment. Target knockdown was verified by western blotting on cells that were transfected in parallel.
For all uptake studies in response to drug treatment, 2.5×10^5 SKOV-3 cells were seeded in complete medium 48 h prior to uptake experiments.
For baseline uptake in HER2 positive or negative lineages, 3×10^5 cells were seeded in complete media in 12-well plates (Corning, Tewksbury Mass.) and allowed to recover overnight. Cells were washed twice with serum-free medium and pulsed with 370 KBq in 500 μL serum-free medium for one h. For blocking studies, cells were co-incubated with tracer and 0.5 mg/mL cold unlabeled [^19F]GE-226[SEQ ID NO 1].
Cells were washed with PBS, trypsinized, neutralized with complete medium and centrifuged. The pellet was washed three times with PBS and lysed in 120 μL RIPA buffer (Sigma-Aldrich). The radioactivity of 100 μL lysate was counted on a Packard Cobra II gamma counter (Perkin Elmer). Radioactivity was normalized to applied radioactivity and protein content, which was determined for each sample by BCA assay (Pierce, Rockford, Ill.).

Row | Substance | NUV60 (SKOV-3 xenografts; PET, 60 minutes) [% ID/mL] | tumor tracer uptake at 2 h (SKOV-3 xenografts; SKOV-3 xenografts, 2 h versus 1 h) | Ki (net irreversible uptake rate) (SKOV-3 xenografts; two-tissue irreversible compartmental model) [mL/cm^3/min] | tracer uptake in comparison to freshly prepared tracer (SKOV-3 cells; incubation initiated 70 minutes later (specific activity)) [%] | tracer uptake in comparison to freshly prepared tracer (SKOV-3 cells; incubation initiated 140 minutes later (specific activity)) [%] | NUV60 of [18F]GE-226 in blocked tumors (SKOV-3 xenografts; 30 mg/kg [19F]GE-226 i.v. 20 minutes prior to PET scan) [% ID/mL] | reduction of [18F]GE-226 uptake by blocking (SKOV-3 cells; co-incubation with 0.5 mg/mL cold [19F]GE-226, 60 minutes) [%] | [18F]GE-226 uptake compared to control cells (100±12%) (SKOV-3 cells; co-incubation with large excess of 19F analogue) [%]
1 | [^18F]GE-226: HER2-binding 18F-radiolabelled Affibody molecule ZHER2:2891 | 18.7±2.4 | higher at 2 h | 0.036±0.0065 | 39.5±8.5 | 24.9±3.8 | – | – | –
2 | [^19F]GE-226: cold unlabeled non-radioactive 19F analogue of the tracer, used for SPR and blocking | – | – | – | – | – | 7.1±1.6 | 96.8±2.6 | 3.1±2.6
